Structures can show the parent of a compound that is named as a salt.
Assay: blood-to-plasma concentration ratio
Assay type: in vitro ADME, human
Details: range of 4 to 1000 ng/mL

Row | Compound | Effect of the compound concentration on the Rb value
1 | Cn1c(=O)c2c(ncn2C)n(C)c1=O [Caffeine] | not observed
2 | CN(C)CCCN1c2ccccc2CCc2ccccc21 [Imipramine, imipramine hydrochlorid] | not observed
3 | C/C=C1/C[C@@H](C)[C@](O)(CO)C(=O)OCC2=CC[N@@+]3([O-])CC[C@@H](OC1=O)[C@@H]23 [Retrorsine N -oxide] | no concentration dependency was observed

— PMC12021451 (Planta Medica, 2025)
